{
  "source": "patent US8735323B2",
  "about": "“Fungicide N-5-membered fused heteroaryl-methylene-N-cycloalkyl-carboxamide derivatives” (Bayer Cropscience AG, priority 2007, dated 2014)",
  "assay": "logP determination by HPLC on reversed-phase column (C 18), EEC Directive 79/831 Annex V.A8",
  "format": "physicochemical",
  "details": "C 18 reversed-phase, 40° C., 0.1% aqueous formic acid and acetonitrile gradient",
  "description": "In the following table, the logP values were determined in accordance with EEC Directive 79/831 Annex V.A8 by HPLC (High Performance Liquid Chromatography) on a reversed-phase column (C 18), using the method described below: Temperature: 40° C.; Mobile phases: 0.1% aqueous formic acid and acetonitrile; linear gradient from 10% acetonitrile to 90% acetonitrile. Calibration was carried out using unbranched alkan-2-ones (comprising 3 to 16 carbon atoms) with known logP values (determination of the logP values by the retention times using linear interpolation between two successive alkanones).",
  "data": [
    {"smiles": "CCc1nn(C)c(F)c1C(=O)N(Cc1cn(-c2ccccc2)c2ccccc12)C1CC1", "note": "[Compound 29]", "values": [
      {"measurement": "LogP", "result": 3.89}
    ]}
  ]
}
